# Test results published in US8431702B2, “Therapeutically useful substituted hydropyrido [3,2,1-ij] quinoline compounds” (Allergan, Inc., priority 2008, dated 2013).
# Like-named read-outs stand apart in the source and are kept apart here.
# Biological target: T1, human S1P3 receptor (Homo sapiens, UniProt Q99500)
# T1 construct: expressed in transfected cells
# Test: FLIPR calcium (Fluo-4) assay for activation or block of activation of human S1P3 receptor in T24 cells
# Assay type: cell-based
# Protocol: The compounds of the invention are assessed for their ability to activate or block activation of the human S1P3 receptor in T24 cells stably expressing the human S1P3 receptor using the method described in paragraph [0067] of United States Patent Application Publication No. 20070232682, which published on Oct. 4, 2007, which is hereby incorporated by reference in its entirety.
# Ten thousands cells/well are plated into 384-well poly-D-lysine coated plates one day prior to use. The growth media for the S1P3 receptor expressing cell line is McCoy's 5A medium supplemented with 10% charcoal-treated fetal bovine serum (FBS), 1% antibiotic-antimycotic and 400 μg/ml geneticin. On the day of the experiment, the cells are washed twice with Hank's Balanced Salt Solution supplemented with 20 mM HEPES (HBSS/Hepes buffer). The cells are then dye loaded with 2 μM Fluo-4 diluted in the HBSS/Hepes buffer with 1.25 mM Probenecid and incubated at 37° C. for 40 minutes. Extracellular dye is removed by washing the cell plates four times prior to placing the plates in the FLIPR (Fluorometric Imaging Plate Reader, Molecular Devices). Ligands are diluted in HBSS/Hepes buffer and prepared in 384-well microplates. The positive control, Sphingosine-1-phosphate (S1P), is diluted in HBSS/Hepes buffer with 4 mg/ml fatty acid free bovine serum albumin. The FLIPR transfers 12.5 μl from the ligand microplate to the cell plate and takes fluorescent measurements for 75 seconds, taking readings every second, and then for 2.5 minutes, taking readings every 10 seconds. Compounds are tested over the concentration range of 0.61 nM to 10,000 nM. Data for calcium ion (Ca^+2) responses are obtained in arbitrary fluorescence units and not translated into Ca^+2 concentrations. IC50 values (nM) are determined through a […] analysis using the Levenburg Marquardt algorithm.
# [1] = T24 cells stably expressing the human S1P3 receptor, tested over 0.61 nM to 10,000 nM
# [2] = T24 cells stably expressing the human S1P3 receptor, tested over 0.61 nM to 10,000 nM, read-out: S1P3 IC50
# T1 sequence (Q99500 whole entry): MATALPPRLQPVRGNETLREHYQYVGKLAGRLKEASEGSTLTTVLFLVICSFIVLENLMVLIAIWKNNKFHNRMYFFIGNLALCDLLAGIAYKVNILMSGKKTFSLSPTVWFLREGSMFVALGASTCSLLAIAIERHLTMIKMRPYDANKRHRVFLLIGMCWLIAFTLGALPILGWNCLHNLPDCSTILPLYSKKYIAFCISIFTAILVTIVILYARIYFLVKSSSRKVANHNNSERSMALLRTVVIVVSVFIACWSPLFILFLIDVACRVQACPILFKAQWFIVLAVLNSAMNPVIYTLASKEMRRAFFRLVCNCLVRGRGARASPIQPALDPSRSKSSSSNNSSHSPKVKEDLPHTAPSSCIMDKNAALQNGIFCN
SMILES,S1P3 % Inhibition [1],IC50,IC50 [2]
"CCCCCCNC(=O)Nc1cc2c3c(c1)C(c1ccccc1)CCN3CCC2c1ccccc1 (centres unmarked) [Compound 487, 1-(1,7-diphenyl-1,2,3,5,6,7-hexahydropyrido[3,2,1-ij]quinolin-9-yl)-3-hexylurea]",100%,–,–
"COC(=O)Nc1cc2c3c(c1)C(c1cccc(F)c1)CCN3CCC2c1cccc(F)c1 (centres unmarked) [Compound 779, Methyl 1,7-bis(3-fluorophenyl)-1,2,3,5,6,7-hexahydropyrido[3,2,1-ij]quinolin-9-ylcarbamate]",101%,–,–
"CCCOC(=O)Nc1cc2c3c(c1)[C@](C)(c1ccccc1)CCN3CC[C@@]2(C)c1ccccc1 [Compound 942, Propyl (1S,7S)-1,7-dimethyl-1,7-diphenyl-1,2,3,5,6,7-hexahydropyrido[3,2,1-ij]quinolin-9-ylcarbamate]",100%,72 nM,–
CSC(=O)Nc1cc2c3c(c1)C(c1ccccc1)CCN3CCC2c1ccccc1 (centres unmarked) [Compound 699],100%,–,4 nM
"O=C(Nc1cc2c3c(c1)C(c1ccccc1)CCN3CCC2c1ccccc1)OCc1ccccc1 (centres unmarked) [Compound 278, Benzyl 1,7-diphenyl-1,2,3,5,6,7-hexahydropyrido[3,2,1-ij]quinolin-9-ylcarbamate]",101%,–,–
"CCCSC(=O)Nc1cc2c3c(c1)[C@](C)(c1ccccc1)CCN3CC[C@@]2(C)c1ccccc1 [Compound 585, S-propyl (1S,7S)-1,7-dimethyl-1,7-diphenyl-1,2,3,5,6,7-hexahydropyrido[3,2,1-ij]quinolin-9-ylcarbamothioate]",98%,5 nM,–
"O=C(NCCCl)Nc1cc2c3c(c1)C(c1ccccc1)CCN3CCC2c1ccccc1 (centres unmarked) [Compound 769, 1-(2-chloroethyl)-3-(1,7-diphenyl-1,2,3,5,6,7-hexahydropyrido[3,2,1-ij]quinolin-9-yl)urea]",100%,–,–
"CCCOC(=O)Nc1cc2c3c(c1)C(c1ccccc1)CCN3CCC2c1ccccc1 (centres unmarked) [Compound 275, Propyl 1,7-diphenyl-1,2,3,5,6,7-hexahydropyrido[3,2,1-ij]quinolin-9-ylcarbamate]",100%,–,–
"CCCCOC(=O)Nc1cc2c3c(c1)C(c1ccccc1)CCN3CCC2c1ccccc1 (centres unmarked) [Compound 276, Butyl 1,7-diphenyl-1,2,3,5,6,7-hexahydropyrido[3,2,1-ij]quinolin-9-ylcarbamate]",101%,–,–
"CC(C)(C)NC(=O)Nc1cc2c3c(c1)[C@](C)(c1ccccc1)CCN3CC[C@@]2(C)c1ccccc1 [Compound 581, 1-t-butyl-3-((1S,7S)-1,7-dimethyl-1,7-diphenyl-1,2,3,5,6,7-hexahydropyrido[3,2,1-ij]quinolin-9-yl)urea]",98%,–,349 nM
"COC(=O)Nc1cc2c3c(c1)[C@](C)(c1ccccc1)CCN3CC[C@@]2(C)c1ccccc1 [Compound 829, methyl (1S,7S)-1,7-dimethyl-1,7-diphenyl-1,2,3,5,6,7-hexahydropyrido[3,2,1-ij]quinolin-9-ylcarbamate]",97%,7 nM,–
COC(=O)Nc1cc2c3c(c1)C(c1ccc(F)cc1)CCN3CCC2c1ccc(F)cc1 (centres unmarked) [Compound 268],98%,–,5 nM
"CCCCCCNC(=S)Nc1cc2c3c(c1)C(c1ccccc1)CCN3CCC2c1ccccc1 (centres unmarked) [Compound 256, 1-(1,7-diphenyl-1,2,3,5,6,7-hexahydropyrido[3,2,1-ij]quinolin-9-yl)-3-hexylthiourea]",100%,–,–
"CCCCOC(=O)Nc1cc2c3c(c1)[C@](C)(c1ccc(F)cc1)CCN3CC[C@@]2(C)c1ccc(F)cc1 [Compound 672, butyl (1S,7S)-1,7-bis(4-fluorophenyl)-1,7-dimethyl-1,2,3,5,6,7-hexahydropyrido[3,2,1-ij]quinolin-9-ylcarbamate]",89%,86 nM,–
"CCCNC(=O)c1cc2c3c(c1)C(c1ccccc1)CCN3CCC2c1ccccc1 (centres unmarked) [Compound 409, 1,7-diphenyl-N-propyl-1,2,3,5,6,7-hexahydropyrido[3,2,1-ij]quinoline-9-carboxamide]",89%,–,874 nM
